Experimental data from patent US20230250084A1, “PYRAZOLYL PYRIMIDINONE COMPOUNDS AND THE USES THEREOF” (Purdue Research Foundation, priority 2019, published 2023).

How the values were obtained:
Format in all cases: cell-based
[1] = target: T1, AC8 (Homo sapiens, UniProt P40145); test: cAMP accumulation (HTRF) in HEK cells stably expressing AC8, stimulated with A23187; set-up: expressed in transfected cells; host or cells: HEK cells stably expressing AC8 (HEK-AC8), hygromycin B selection; details: Table 1; for IC50: HEK-AC8 cells, A23187-stimulated cAMP accumulation; for Max AC8 Inh (%): maximum inhibition of AC8
Procedure: (§1) The primary technology we employed to measure cAMP accumulation was a homogenous time-resolved fluorescence (HTRF) assay, the same technology utilized in the primary screen. […]
(§2) Briefly, cryopreserved cells were thawed, resuspended in optiMEM (Life Technologies), and plated in white, flat bottom, low-volume, tissue culture-treated 384 well plates (PerkinElmer, Shelton, Conn.). Plates with cells were incubated in a 37° C. humidified incubator for 1 h. Inhibitors were added and plates were incubated at room temperature for 30 min followed by the addition of AC stimulants in the presence of 500 μM IBMX. Cells were incubated at room temperature for 1 h and cAMP accumulation was measured using Cisbio's cAMP kit (Cisbio Bioassays, Bedford, Mass.) according to the manufacturer's instructions.
Target sequence in this assay (P40145 whole entry, species assumed): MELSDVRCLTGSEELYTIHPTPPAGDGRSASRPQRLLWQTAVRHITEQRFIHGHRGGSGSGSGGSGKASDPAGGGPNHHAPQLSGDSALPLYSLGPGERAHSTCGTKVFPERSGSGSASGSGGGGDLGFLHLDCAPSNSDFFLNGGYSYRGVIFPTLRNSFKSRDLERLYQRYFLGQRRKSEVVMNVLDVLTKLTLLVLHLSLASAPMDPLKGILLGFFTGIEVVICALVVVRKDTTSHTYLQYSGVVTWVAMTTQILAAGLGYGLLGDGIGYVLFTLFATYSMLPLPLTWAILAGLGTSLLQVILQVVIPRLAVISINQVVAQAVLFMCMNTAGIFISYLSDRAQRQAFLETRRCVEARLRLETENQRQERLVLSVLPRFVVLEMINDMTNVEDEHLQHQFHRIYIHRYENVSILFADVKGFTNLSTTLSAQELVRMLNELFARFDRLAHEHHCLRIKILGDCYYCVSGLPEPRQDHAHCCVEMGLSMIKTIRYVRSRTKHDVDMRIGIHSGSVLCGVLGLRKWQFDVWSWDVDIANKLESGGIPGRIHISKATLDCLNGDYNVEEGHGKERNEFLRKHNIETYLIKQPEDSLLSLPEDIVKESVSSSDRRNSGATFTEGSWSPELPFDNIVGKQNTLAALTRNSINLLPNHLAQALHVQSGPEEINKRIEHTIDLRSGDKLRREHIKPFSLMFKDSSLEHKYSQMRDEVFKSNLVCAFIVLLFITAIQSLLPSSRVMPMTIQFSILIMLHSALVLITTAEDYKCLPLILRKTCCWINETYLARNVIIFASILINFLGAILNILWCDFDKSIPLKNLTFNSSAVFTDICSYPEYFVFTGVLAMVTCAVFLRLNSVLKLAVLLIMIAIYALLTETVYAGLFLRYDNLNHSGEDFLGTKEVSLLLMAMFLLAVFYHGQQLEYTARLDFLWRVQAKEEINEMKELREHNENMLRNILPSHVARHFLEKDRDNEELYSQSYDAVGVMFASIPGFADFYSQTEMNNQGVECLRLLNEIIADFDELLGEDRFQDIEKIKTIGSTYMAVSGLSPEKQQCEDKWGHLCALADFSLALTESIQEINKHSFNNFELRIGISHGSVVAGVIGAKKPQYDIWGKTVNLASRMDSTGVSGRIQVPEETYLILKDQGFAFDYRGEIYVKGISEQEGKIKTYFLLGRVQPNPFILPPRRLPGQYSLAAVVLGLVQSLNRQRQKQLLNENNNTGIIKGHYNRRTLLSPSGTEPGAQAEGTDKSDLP

[2] = target: T1, AC8; test: Adenylyl cyclase cAMP accumulation assay, HEK-ACA3/6 cells overexpressing human AC8; set-up: expressed in transfected cells; host or cells: HEK-ACA3/6 cells (so in the source) overexpressing human AC8; details: Table 2
Procedure: (§3) Cryopreserved HEK-ACA3/6 cells overexpressing human AC1, AC2, AC5, or AC8 were transferred to a 15 mL Falcon tube and gently resuspended in prewarmed Opti-MEM.50 The cells were centrifuged for 5 min at 150 g, the supernatant was discarded, and the cell pellet was resuspended in 10 mL for a second centrifugation step. Then, the cells were counted, plated in a white opaque 384-well plate, and incubated for 1 h in a 37° C. incubator supplemented with 5% CO2. The hit compounds' working solutions were prepared in prewarmed Opti-MEM, and successive serial dilutions were prepared using a Precision 2000 automated pipetting system. Dose*-response curves were generated for each hit compound using a threefold serial dilution starting at 30 μM concentration (at least 6-points per curve). Compounds were added to the assay plates and incubated for 30 min at room temperature. AC activity was selectively stimulated on each AC isoform with 3 μM A23187 (AC1 and AC8), 100 nM PMA (AC2), or a low concentration (1 μM) of the AC activator, forskolin (AC5). All stimulants of AC activity were added in combination with IBMX at a final concentration of 0.5 mM. After 1 h incubation with the stimulant at room temperature, cAMP accumulation was detected using the fluorescence-based Cisbio HTRF cAMP detection kit. […] Percent inhibition at the highest concentration was used to determine max % inhibition (Max AC8% Inhibition).
The Max AC8 inhibition is a description of the maximum efficacy of molecules against AC8.
Target sequence in this assay (P40145 whole entry): as the sequence (P40145 whole entry, species assumed) above

[3] = target: T2, AC1 (Homo sapiens, UniProt Q08828); test: Adenylyl cyclase cAMP accumulation assay, HEK-ACA3/6 cells overexpressing human AC1; set-up: expressed in transfected cells; host or cells: HEK-ACA3/6 cells (so in the source) overexpressing human AC1; details: Table 2; 3 μM A23187 + 0.5 mM IBMX, HTRF cAMP; read-out: AC1 IC50 (μM) ± SEM
T2 sequence (Q08828 whole entry): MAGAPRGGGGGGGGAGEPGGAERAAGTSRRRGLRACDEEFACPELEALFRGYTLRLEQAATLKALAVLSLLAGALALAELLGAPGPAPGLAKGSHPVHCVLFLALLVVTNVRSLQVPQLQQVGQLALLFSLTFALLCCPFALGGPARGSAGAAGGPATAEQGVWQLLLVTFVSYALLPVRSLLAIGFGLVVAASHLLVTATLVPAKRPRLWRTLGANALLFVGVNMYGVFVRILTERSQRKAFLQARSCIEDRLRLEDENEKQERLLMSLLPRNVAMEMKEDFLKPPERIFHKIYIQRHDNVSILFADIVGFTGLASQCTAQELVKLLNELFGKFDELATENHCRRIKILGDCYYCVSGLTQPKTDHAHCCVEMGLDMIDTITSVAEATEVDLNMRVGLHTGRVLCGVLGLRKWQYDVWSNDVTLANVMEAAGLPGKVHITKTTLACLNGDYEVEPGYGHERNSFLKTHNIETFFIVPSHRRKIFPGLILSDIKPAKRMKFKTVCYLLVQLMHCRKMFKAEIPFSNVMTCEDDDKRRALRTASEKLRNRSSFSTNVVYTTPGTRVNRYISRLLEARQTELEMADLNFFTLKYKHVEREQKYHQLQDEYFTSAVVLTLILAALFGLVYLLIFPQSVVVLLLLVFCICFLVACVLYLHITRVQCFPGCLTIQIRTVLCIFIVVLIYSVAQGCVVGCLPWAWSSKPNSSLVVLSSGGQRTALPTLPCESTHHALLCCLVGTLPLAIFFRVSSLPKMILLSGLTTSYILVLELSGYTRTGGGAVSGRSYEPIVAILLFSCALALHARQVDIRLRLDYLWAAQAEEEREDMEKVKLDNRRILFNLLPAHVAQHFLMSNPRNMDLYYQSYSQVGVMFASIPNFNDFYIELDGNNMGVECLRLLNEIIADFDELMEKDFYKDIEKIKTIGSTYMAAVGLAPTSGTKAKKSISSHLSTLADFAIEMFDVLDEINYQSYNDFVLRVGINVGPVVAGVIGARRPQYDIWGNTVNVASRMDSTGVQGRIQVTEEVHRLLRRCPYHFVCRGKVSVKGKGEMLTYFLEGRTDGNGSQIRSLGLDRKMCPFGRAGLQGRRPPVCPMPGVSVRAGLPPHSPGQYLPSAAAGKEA
Procedure: as §3, with “Inhibition). […]” for “Inhibition).”

[4] = target: T2, AC1; test: cAMP accumulation (HTRF) in HEK cells stably expressing AC1, stimulated with A23187; set-up: expressed in transfected cells; host or cells: HEK cells stably expressing AC1 (HEK-AC1), G418 selection
Procedure: The screen was carried out using HEK cells stably expressing AC1 (HEK-AC1) and cyclic AMP accumulation was stimulated using the Ca^2+ ionophore, A23187 to selectively activate AC1. […]
as §1, §2

[5] = Table 1, HEK-AC1 cells, A23187-stimulated cAMP accumulation, read-out: AC1 IC50

Compound | IC50 [1] [µM] | Max AC8 Inh (%) [1] [%] | IC50 ([2]; 3 μM A23187 + 0.5 mM IBMX, HTRF cAMP, read-out: AC8 IC50 (μM) ± SEM) [µM] | inhibition at up to 30 µM ([2]; percent inhibition at the highest concentration (dilution starting at 30 μM), read-out: Max AC8 % inhibition) [%] | IC50 [3] [µM] | IC50 [4, 5] [µM] | IC50 [4] [µM]
CCc1cc(=O)[nH]c(-n2nc(C)cc2NC(=O)c2ccc(OC)cc2)n1 [AC10076, N-(1-(6-ethyl-4-oxo-1,4-dihydropyrimidin-2-yl)-3-methyl-1H-pyrazol-5-yl)-4-methoxybenzamide] | 33 | 0 |  |  |  |  | 
CCc1cc(=O)[nH]c(-n2nc(-c3ccccc3)cc2NCc2ccc(OC)cc2)n1 [AC10112A] |  |  | 45.3 ± 14.1 | 37 | 0.86 ± 0.07 |  | 
CCc1cc(=O)[nH]c(-n2nc(C)cc2NC(=O)c2ccccn2)n1 [AC10093, N-(1-(6-ethyl-4-oxo-1,4-dihydropyrimidin-2-yl)-3-methyl-1H-pyrazol-5-yl)picolinamide] | 15 | 46 |  |  |  |  | 
CCc1cc(=O)[nH]c(-n2nc(C)cc2NC(=O)Cc2cccc(C)c2)n1 [AC10075, N-(1-(6-ethyl-4-oxo-1,4-dihydropyrimidin-2-yl)-3-methyl-1H-pyrazol-5-yl)-2-(m-tolyl)acetamide] | 50 | 59 |  |  |  | 10 | 
CCc1cc(=O)[nH]c(-n2nc(C)cc2NC(=O)c2ccc(F)cc2)n1 [AC10092, N-(1-(6-ethyl-4-oxo-1,4-dihydropyrimidin-2-yl)-3-methyl-1H-pyrazol-5-yl)-4-fluorobenzamide] | 14 | 52 |  |  |  | 0.9 | 
CCc1ccc(C(=O)Nc2cc(C)nn2-c2nc(CC)cc(=O)[nH]2)cc1 [AC10082, 4-ethyl-N-(1-(6-ethyl-4-oxo-1,4-dihydropyrimidin-2-yl)-3-methyl-1H-pyrazol-5-yl)benzamide] | 37 | 19 |  |  |  | 0.5 | 
CCc1cc(=O)[nH]c(-n2nc(C)cc2NC(=O)c2ccco2)n1 [AC10069, N-(1-(6-ethyl-4-oxo-1,4-dihydropyrimidin-2-yl)-3-methyl-1H-pyrazol-5-yl)furan-2-carboxamide] |  | 20 |  |  |  | 6.1 | 
CCc1cc(=O)[nH]c(-n2nc(C)cc2NC(=O)c2ccc(Cl)cc2)n1 [AC10058, 4-chloro-N-(1-(6-ethyl-4-oxo-1,4-dihydropyrimidin-2-yl)-3-methyl-1H-pyrazol-5-yl)benzamide] | 9.5 | 32 |  |  |  | 0.3 | 
CCc1cc(=O)[nH]c(-n2nc(C)cc2NC(=O)c2ccccc2CC)n1 [AC10074, 2-ethyl-N-(1-(6-ethyl-4-oxo-1,4-dihydropyrimidin-2-yl)-3-methyl-1H-pyrazol-5-yl)benzamide] | 50 | 21 |  |  |  | 2.8 | 
CCc1cc(=O)[nH]c(-n2nc(C)cc2NC(=O)c2ccccc2)n1 [AC10068, N-(1-(6-ethyl-4-oxo-1,4-dihydropyrimidin-2-yl)-3-methyl-1H-pyrazol-5-yl)benzamide] |  | 0 |  |  |  | 2.7 | 
CCc1cc(=O)[nH]c(-n2nc(C)cc2NC(=O)c2cccc(SC)c2)n1 [AC10088, N-(1-(4-ethyl-6-oxo-1,6-dihydropyrimidin-2-yl)-3-methyl-1H-pyrazol-5-yl)-3-(methylthio)benzamide] | 9.7 | 52 |  |  |  | 0.4 | 
CCc1cc(=O)[nH]c(-n2nc(C)cc2NC(=O)c2ccc(C)cc2)n1 [AC10080, N-(1-(6-ethyl-4-oxo-1,4-dihydropyrimidin-2-yl)-3-methyl-1H-pyrazol-5-yl)-4-methylbenzamide] | 48 | 27 |  |  |  | 0.7 | 
CCc1cc(=O)[nH]c(-n2nc(C)cc2NC(=O)c2ccc(OCOC)cc2)n1 [AC10071, N-(1-(6-ethyl-4-oxo-1,4-dihydropyrimidin-2-yl)-3-methyl-1H-pyrazol-5-yl)-4-(methoxymethoxy)benzamide] | 23 |  |  |  |  | 3.2 | 
CCc1cc(=O)[nH]c(-n2nc(C)cc2NC(=O)c2ccccc2F)n1 [AC10048, N-(1-(6-ethyl-4-oxo-1,4-dihydropyrimidin-2-yl)-3-methyl-1H-pyrazol-5-yl)-2-fluorobenzamide] |  | 46 |  |  |  | 1.5 | 
CCc1cc(=O)[nH]c(-n2nc(C)cc2NC(=O)c2cccc(C(C)C)c2)n1 [AC10087, N-(1-(6-ethyl-4-oxo-1,4-dihydropyrimidin-2-yl)-3-methyl-1H-pyrazol-5-yl)-3-isopropylbenzamide] | 24 | 28 |  |  |  | 0.4 | 
CCc1cc(=O)[nH]c(-n2nc(C)cc2NC(=O)c2cccc(C)c2)n1 [AC10079, N-(1-(6-ethyl-4-oxo-1,4-dihydropyrimidin-2-yl)-3-methyl-1H-pyrazol-5-yl)-3-methylbenzamide] | 27 | 27 |  |  |  |  | 0.4
CCc1cc(=O)[nH]c(-n2nc(C)cc2NC(=O)c2cccc(F)c2)n1 [AC10091, N-(1-(6-ethyl-4-oxo-1,4-dihydropyrimidin-2-yl)-3-methyl-1H-pyrazol-5-yl)-3-fluorobenzamide] | 12 | 55 |  |  |  | 1.2 | 
CCc1cc(=O)[nH]c(-n2nc(C)cc2NC(=O)c2ccccc2C)n1 [AC10077, N-(1-(6-ethyl-4-oxo-1,4-dihydropyrimidin-2-yl)-3-methyl-1H-pyrazol-5-yl)-2-methylbenzamide] |  | 11 |  |  |  | 2.4 | 
CCc1cc(=O)[nH]c(-n2nc(C)cc2NC(=O)c2cccc(OC)c2)n1 [AC10073, N-(1-(6-ethyl-4-oxo-1,4-dihydropyrimidin-2-yl)-3-methyl-1H-pyrazol-5-yl)-3-methoxybenzamide] |  | 5 |  |  |  |  | 1
CCc1cccc(C(=O)Nc2cc(C)nn2-c2nc(CC)cc(=O)[nH]2)c1 [AC10081, 3-ethyl-N-(1-(6-ethyl-4-oxo-1,4-dihydropyrimidin-2-yl)-3-methyl-1H-pyrazol-5-yl)benzamide] |  | 12 |  |  |  | 0.4 | 
CCc1cc(=O)[nH]c(-n2nc(C)cc2NC(=O)c2cccc(Cl)c2)n1 [AC10090, 3-chloro-N-(1-(6-ethyl-4-oxo-1,4-dihydropyrimidin-2-yl)-3-methyl-1H-pyrazol-5-yl)benzamide] | 6.9 | 48 |  |  |  | 0.4 | 
CCc1cc(=O)[nH]c(-n2nc(C)cc2NC(=O)c2cccc(C(F)(F)F)c2)n1 [AC10089, N-(1-(4-ethyl-6-oxo-1,6-dihydropyrimidin-2-yl)-3-methyl-1H-pyrazol-5-yl)-3-(trifluoromethyl)benzamide] | 18 | 41 |  |  |  | 0.7 | 
